This is an account of results in patent US5270339A, “Phenoxybenzene derivative” (Kanagafuchi Kagaku Kogyo Kabushiki Kaisha, priority 1991, dated 1993).

A short description of data set [1]: Acute toxicity test, oral. The class given is in vivo, ddY male mice. The conditions noted are these: mouse, in vivo, ddY mice, 2 weeks observation. Here is the method:
(§1) With respect to the compounds 1 to 86 shown in Table 1 as test compounds, the acute toxicity was examined using ddY mice according to the following method.
(§2) In each group, six male ddY mice weighing 27 to 30 g were employed. The compounds 1 to 86 suspended in an aqueous solution of 0.5% sodium carboxymethylcellulose were administered orally in a volume of 0.1 ml/10 g body weight. […] The LD50 (mg/kg) values were estimated from the ratio of the number of dead mice to the number of mice used.

The target in data set [2] is T1, M1 receptor (Rattus norvegicus, UniProt P08482).
T1 construct: rat's brain except for cerebellum was homogenized; from tissue; host or cells: rat brain except cerebellum, homogenate
T1 sequence (P08482 1-460): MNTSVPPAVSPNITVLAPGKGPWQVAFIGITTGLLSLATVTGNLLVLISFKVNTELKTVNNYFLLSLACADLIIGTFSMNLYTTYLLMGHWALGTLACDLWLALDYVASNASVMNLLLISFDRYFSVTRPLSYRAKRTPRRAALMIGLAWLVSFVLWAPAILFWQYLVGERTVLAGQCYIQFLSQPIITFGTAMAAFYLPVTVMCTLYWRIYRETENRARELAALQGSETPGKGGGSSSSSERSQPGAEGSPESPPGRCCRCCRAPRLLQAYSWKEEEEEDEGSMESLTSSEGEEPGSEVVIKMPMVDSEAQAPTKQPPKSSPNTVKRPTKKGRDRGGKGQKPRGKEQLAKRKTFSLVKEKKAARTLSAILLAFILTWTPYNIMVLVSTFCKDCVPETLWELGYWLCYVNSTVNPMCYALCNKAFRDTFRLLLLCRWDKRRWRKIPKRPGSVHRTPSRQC
The experiment in a line: Receptor binding activity, inhibition of [3H]pyrenzepine binding to M1. The conditions noted are these: 1 nM [3H]pyrenzepine, rat's brain except cerebellum; for inhibition at 10 µM: 10 μM test compound. The procedure:
The binding ability of the test compounds to M1 was determined according to a modification of the method of Watson et al. (Life Sci., 32, 3001 (1983)). […] The mixture was incubated for 1 hour. The inhibition rate (%) of the binding with [3H]pyrenzepine was evaluated. The higher inhibition means the higher affinity of the test compound for M1 receptor.

Data set [3] deals with experimental amnesia in mice induced by cycloheximide. The experiment in a line: Anti-amnesic effect: passive avoidance task (step-through), cycloheximide-induced amnesia. It is filed as in vivo, ddY male mice. The conditions noted are these: for Step-through latency: mean of group. The procedure: (§3) As experimental animals, Wistar male rats and ddY male mice were used for the tests after they were housed for a week under every 12 hours' dark-light cycle at room temperature of 24° to 26° C.
The effect on experimental amnesia in mice induced by cycloheximide was evaluated.
The experiment was carried out using an experimental apparatus of passive avoidance task for mice (made by Ohara-ika-sangyo K. K.) comprising a box divided into the two compartments of dark and light. That is, the dark compartment [a box having a reverse trapezoid cross section (height: 8 cm, base line: 5 cm, oblique line: 9.5 cm) and having the length of 14 cm] was shield from a light with a black plastic case and was floored with stainless grids for giving an electrical shock so that an electricity might be turned on a determined time after interception of a photobeam placed in the dark compartment. The light compartment made of transparent plastic (a box of the same shape as that of the dark compartment having the length of 16 cm, lightened from a location spaced 25 cm above by a 60 W electric lamp) was provided adjacent to the dark compartment. Between the two compartments, there was provided a circular entrance having the diameter of 3 cm with a guillotine door which could be opened and closed. By using the above-mentioned dark-light box, the experiment was carried out according to the following procedure.
A mouse (5 week-old) previously conditioned in the dark-light box was put in the light compartment and the guillotine door was opened. Three seconds after the mouse moved into the dark compartment and interrupted the photobeam, 0.3 mA electrical shock was given to limbs for 3 seconds from the floor grid (aquisition trial). Just after the mouse rushed into the light compartment, the door was shut and the […] in the light compartment was picked out to return to his home cage. After 24 hours, the mouse was placed again in the light compartment and the period from the opening of the guillotine door to the time the mouse completely entered the dark compartment was recorded maximally 300 seconds as a step-through latency (retention trial).
The amnesia was induced by subcutaneous injection of cycloheximide (120 mg/kg) dissolved in saline 10 minutes before the aquisition trial. As a control, the same amount of saline alone was administered. […]
A ratio of number of mice showing the step-through latency of more than 100 seconds in the group was defined as a ratio of memory for convenience's sake.
The step-through latency in Table 2 was the mean value for each treated group.

In data set [4] the test system is ddY mice. In words: Acute toxicity test, oral. The class given is in vivo, ddY male mice. The conditions noted are these: dose of 200 mg/kg, 2 weeks. Here is the method:
as §1, §2

Data set [5] deals with forced swimming test with rats (duration of immobility). The experiment in a line: Antidepressant activity: forced swimming test using rats. It is filed as in vivo, Wistar male rats. To be noted: p.o., 30 mg/kg. Here is the method: as §3
That is, a rat (5 week-old) was placed into a glass cylinder having the inside diameter of 18 cm and the height of 40 cm which contained water (water temperature: 25° C.) up to its height of 15 cm. After 15 minutes, the rat was picked up followed by drying and then returned to his home cage. After 24 hours, the rat was again placed into the water in the same cylinder. The duration of immobility (the time rat kept motionless) was accumulatively measured with a stopwatch for five minutes (a five minutes' test). Each test compound was suspended in saline. The administration was carried out three times, at 24, 5 and 1 hour before the five minutes' test in case of an intraperitoneal administration or with only a single administration at 1 hour before the five minutes' test in case of an oral administration to examine the antidepressant effect.
The duration of immobility in Table 4 is the mean value for […] in each group. Suppression is expressed as a ratio in percentage of a reduction of the duration of immobility in the group administered with the test compound to that in the control group administered with saline alone.

The mark [6] stands for this setting: Mus musculus, 1 mg/kg oral, mice with latency > 100 seconds, read-out: Ratio of memory.
The mark [7] stands for this setting: Mus musculus, 3 mg/kg oral, mice with latency > 100 seconds, read-out: Ratio of memory.

SMILES strings stand for the structures.

By LD50 is commonly meant the dose expected to kill half of the subjects tested. Lower therefore signals a more toxic substance. Usually inhibition stands for the drop in the measured response relative to a control, in per cent. Low values mean little suppression, high ones strong suppression.

`CCN1CC(=Cc2cccc(Oc3ccccc3)c2)CC1C` (stereo not drawn) [Compound 75]: the 50% lethal dose (LD50) at 336 h in data set [1] is at least 500 mg/kg. The inhibition at 1 µM in data set [2] (1 μM test compound) is 65%. In addition, the Step-through latency in data set [3] (1 mg/kg oral) turned out to be 160 s. Further, the responders at 1 mg/kg in data set [3] (setting [6]) was 50%.

The molecule `CCN1CCC(=Cc2cccc(Oc3ccccc3)c2)C1` [Compound 66] yielded a median lethal dose (LD50) at 336 h in data set [1] of at least 500 mg/kg. In addition, 1 µM produced 82% inhibition in data set [2] (1 μM test compound). Moreover, the Step-through latency in data set [3] (0.3 mg/kg oral) turned out to be 221 s. In addition, the responders at 0.3 mg/kg in data set [3] (Mus musculus, 0.3 mg/kg oral, mice with latency > 100 seconds, read-out: Ratio of memory) was determined as 75%.

For the molecule `CCCN1CCC(=Cc2cccc(Oc3ccccc3)c2)C1=O` [Compound 11], the median lethal dose (LD50) at 336 h in data set [1] is at least 500 mg/kg. For the same molecule, testing at 10 µM in data set [2] gave an inhibition of 58%. The molecule further had a Step-through latency in data set [3] (3 mg/kg oral) of 182 s. In addition, in data set [3] (setting [7]), the responders at 3 mg/kg stood at 63%.

In data set [1], `C(=C1CCNC1)c1cccc(Oc2ccccc2)c1` [Compound 63] had a median lethal dose (LD50) at 336 h of at least 200 mg/kg. Moreover, in data set [4], the Dead mice result is “no dead mice”.

Take `CON1CCC(=Cc2cccc(Oc3ccccc3)c2)C1=O` [Compound 22]: the median lethal dose (LD50) at 336 h in data set [1] is at least 500 mg/kg. The same molecule registered an inhibition at 10 µM in data set [2] of 63%. For the same molecule, the Step-through latency in data set [3] (3 mg/kg oral) was 100 s. Also, in data set [3] (setting [7]), the responders at 3 mg/kg stood at 50%.

`CCN1CC(=Cc2cccc(Oc3ccccc3)c2)C(C)C1` (stereo not drawn) [Compound 76] displayed an LD50 at 336 h in data set [1] of at least 500 mg/kg. In data set [2] (1 μM test compound), this molecule gave an inhibition at 1 µM of 80%. The molecule further returned a Step-through latency in data set [3] (1 mg/kg oral) of 109 s. The responders at 1 mg/kg in data set [3] (setting [6]) worked out at 50%.

Molecule `CN1CCC(=Cc2cccc(Oc3ccccc3)c2)C1` [Compound 65] came in with a median lethal dose (LD50) at 336 h in data set [1] of at least 500 mg/kg. In data set [2], this molecule came in with an inhibition at 10 µM of 52%. The same molecule returned a Step-through latency in data set [3] (1 mg/kg oral) of 117 s. Further, the responders at 1 mg/kg in data set [3] (setting [6]) amounted to 50%.

As to `CCN1CCC(=Cc2cccc(Oc3ccccc3)c2)C1` [Compound 67], in data set [2] (1 μM test compound), the “Inhibition of the binding with [3H]pyrenzepine (M1)” value was found to be 78%. Also, the Step-through latency in data set [3] (1 mg/kg oral) amounted to 100 s. For the same molecule, the responders at 1 mg/kg in data set [3] (setting [6]) came to 50%.

As to `CCN1CCC(=Cc2cccc(Oc3ccccc3)c2)C1=O` [Compound 10], in data set [1], the median lethal dose (LD50) at 336 h is at least 500 mg/kg. In data set [2], this molecule registered an inhibition at 10 µM of 90%. For the same molecule, the Step-through latency in data set [3] (3 mg/kg oral) came out at 127 s. Also, in data set [3] (setting [7]), the responders at 3 mg/kg was determined as 80%.

In data set [1], `CC(C)N1CCC(=Cc2cccc(Oc3ccccc3)c2)C1=O` [Compound 16] gave a 50% lethal dose (LD50) at 336 h of at least 500 mg/kg. The inhibition at 10 µM in data set [2] turned out to be 75%. For the same molecule, in data set [3] (3 mg/kg oral), the Step-through latency was 176 s. Moreover, in data set [3] (setting [7]), the responders at 3 mg/kg is 75%.

As to `C=CCN1CCC(=Cc2cccc(Oc3ccccc3)c2)C1=O` [Compound 20], in data set [1], the median lethal dose (LD50) at 336 h was at least 500 mg/kg. Moreover, the inhibition at 10 µM in data set [2] is 88%.

For `O=C1NC(N2CCCC2)CC1=Cc1cccc(Oc2ccccc2)c1` (stereo not drawn) [Compound 59], in data set [1], the 50% lethal dose (LD50) at 336 h is at least 500 mg/kg. The molecule also returned an inhibition at 10 µM in data set [2] of 56%. The Step-through latency in data set [3] (3 mg/kg oral) amounted to 157 s. Moreover, the responders at 3 mg/kg in data set [3] (setting [7]) stood at 50%.

`CC(C)N1CCC(=Cc2cccc(Oc3ccccc3)c2)C1` [Compound 84] yielded a 50% lethal dose (LD50) at 336 h in data set [1] of at least 500 mg/kg. Also, the inhibition at 1 µM in data set [2] (1 μM test compound) came to 75%. The molecule also had a Step-through latency in data set [3] (1 mg/kg oral) of 176 s. Further, in data set [3] (setting [6]), the responders at 1 mg/kg turned out to be 75%.

As to `O=C1C(=Cc2cccc(Oc3ccccc3)c2)CCN1CCF` [Compound 26], the median lethal dose (LD50) at 336 h in data set [1] is at least 500 mg/kg. In data set [2], this molecule registered an inhibition at 10 µM of 87%. The same molecule came in with a Step-through latency in data set [3] (1 mg/kg oral) of 196 s. In addition, the responders at 1 mg/kg in data set [3] (setting [6]) was found to be 75%.

Regarding `C(=C1CCNC1)c1cccc(Oc2ccccc2)c1` [Compound 64], the Duration of immobility in data set [5] (1 hour before test) came out at 40 s. In addition, in data set [5] (vs saline), the “Suppression of duration of immobility” value came to 82%. The molecule further had an inhibition at 10 µM in data set [2] of 90%. In data set [3] (3 mg/kg oral), the Step-through latency turned out to be 150 s. Also, the responders at 3 mg/kg in data set [3] (setting [7]) stood at 63%.

Turning to `NC(=O)CN1CCC(=Cc2cccc(Oc3ccccc3)c2)C1=O` [Compound 32], in data set [1], the LD50 at 336 h was at least 500 mg/kg. The same molecule gave an inhibition at 10 µM in data set [2] of 91%. In addition, the Step-through latency in data set [3] (1 mg/kg oral) turned out to be 94 s. For the same molecule, in data set [3] (setting [6]), the responders at 1 mg/kg was determined as 50%.
